Data published in US20230303551A1, “N-CYCLYL-SULFONAMIDES USEFUL FOR INHIBITING RAF” (ALBERT EINSTEIN COLLEGE OF MEDICINE, priority 2020, published 2023).
Entries after “also recorded” stand apart in the source; their conditions may differ.

Key:
[1] = system: p-MEK in A375 cells; test: Wash-out and recovery of MAPK signaling in A375 cells; format: cell-based; details: for relative p-MEK1/2 after washout: A375, 500 nM for 1 hr, then washout
Procedure: Wash-out experiments were conducted in A375 cells. After treatment with inhibitors at 500 nM for 1 h (on time), cells were incubated with fresh medium for the indicated times (off time). p-MEK levels were determined by WB and were quantified by densitometric analysis. p-MEK levels were normalized to total ERK1/2 which was used as loading control and control cells (DMSO treatment). Data were fit to an exponential model using least squares, to obtain apparent half-life (t1/2) values.
(§1) Densitometric data for p-ERK, p-MEK, ERK1/2 (MAPK cellular activity) or BRAF and GAPDH (CETSA analysis) from western blot scanned films were obtained using Image Studio software (LI-COR). Data were corrected to loading control (total ERK1/2 or GAPDH) and normalized to DMSO treated bands (100%) and blot backgrounds (0%). IC50 or Tm values were obtained from non-linear regression fits of normalized data to a four-parameter logistic curve (4PL).

[2] = system: p-ERK1/2 and p-MEK1/2 in SKMEL239-C4 cells; test: Wash-out and recovery of MAPK signaling in SKMEL239-C4 cells; format: cell-based; details: SKMEL239-C4, 500 nM for 1 hr, then washout
[3] = system: RKO cells; test: Cell viability (Cell-Titer Glo), RKO; format: cell-based
Procedure: (§2) For cell viability and proliferation assays, we followed the manufacturer's protocol for Cell-Titer Glo (Promega). In brief, cells were plated in 96-well plates at a density of 5000 cells per well. The next day, cells were treated with increasing concentrations of inhibitors for 72 hours at 37° C. At the end of the incubation period, 100 μL of Cell-Titer Glo (Promega) was added to each well and further incubated for 15 min at room temperature. Cell viability was determined by measuring luminescence and was detected by a F200 PRO microplate reader (TECAN). Viability assays were performed in at least triplicate and the data normalized to vehicle-treated control wells. IC50 values were determined by nonlinear regression analysis using Prism software (Graphpad). Antiproliferative synergy was determined by co-treatment of inhibitors at indicated concentrations in 96-well plated at a density of 3000 cells per well. Inhibitors or DMSO control were injected using a D300e digital dispenser (TECAN). Extend of synergy was quantified using the BLISS matrix method.

[4] = molecular target: T1, BRAF^V600E (Homo sapiens, UniProt P15056, V600E); test: Cellular Thermal Shift Assay (CETSA) in A375 cells; format: cell-based; parameters: endogenous in cells; host or cells: A375 melanoma cells; details: A375 cells, 1, 5 and 20 μM
Excerpt: as §1
For CETSA analysis, cultured A375 melanoma cells were washed with Dulbecco's phosphate buffered saline (DPBS) and split into 500 μL aliquots (each containing 3,75 million cells) in the same buffer, containing DMSO control (20 μM) or 1, 5 and 20 μM of DAB or DABK. The samples were incubated for 1 hr at room temperature, rotating. After compound incubation, samples (50 μL each) were transferred in PCR tubes and incubated for 3 min in a temperature gradient produced with a C1000 thermal cycler (Bio-Rad). Cells were immediately lysed by repeating freeze-thaw cycles (3× times) in liquid nitrogen. Lysates were spun in a microcentrifuge at 15.000× g for 15 min at 4° C. Equal volumes of supernatants were run on 15-well 4-12% NuPAGE SDS-PAGE gels (Invitrogen), and analyzed by western blot. Results were quantitated by densitometric analysis and were normalized to GAPDH loading control, which is temperature insensitive under these conditions. […]

[5] = system: pERK in melanoma A375 cells expressing BRAF^V600E; test: pERK inhibition in A375 cells (Western blot densitometry); format: cell-based; details: 1 hr treatment
Procedure: Western blots were performed from whole cell lysates (WCLs) prepared in lysis buffer containing 50 mM Tris-HCl pH7.5, 1% NP40, 150 mM NaCl, 1 mM EDTA and 10% glycerol in the presence of protease inhibitor cocktail (Roche). WCLs were separated on a 4-12% NuPAGE MES gel (Invitrogen), transferred onto a PVDF membrane, blocked for lhr and immunoblotted with the corresponding antibodies.
as §1

[6] = system: A375 cells; test: Cell viability (Cell-Titer Glo), A375; format: cell-based; details: Homo sapiens, A-375; A375, 72 hr
Procedure: as §2

[7] = molecular target: full length BRAF^V600E (Homo sapiens, UniProt P15056, V600E); test: In vitro residence time (ATP-site tracer T178 displacement, LanthaScreen); format: binding; details: kinase ATP-probe displacement
Procedure: Residence times of inhibitors to recombinant full-length BRAF was determined using an adaptation of the LanthaScreen Eu Kinase Binding Assay (Invitrogen). Initially, binding of inhibitors to his-tagged BRAF labelled with Eu-anti-his antibody at 80-90% saturation was established, by incubating inhibitors and BRAF in PBS buffer (max DMSO 2%) for […] The reactions were then rapidly diluted 25× times in a saturated concentration of the fluorescent ATP-site tracer T178 (Invitrogen). Dissociation of inhibitors from BRAF by T178 tracer was monitored in real-time by detecting the TR-FRET […] to […] emission ratio every 20 sec. The TR-FRET signal was normalized between 100% (no inhibitors present) and 0% (saturated inhibitor binding). Time traces were fit to a single exponential to obtain the half-life (t1/2) of dissociation of inhibitors. Residence times for each inhibitor were calculated as (t1/2)/ln2.

[8] = system: SK-MEL-239-C4 cells; test: Cell viability (Cell-Titer Glo), SK-MEL-239-C4; format: cell-based; details: SK-MEL-239-C4, 72 hr
Procedure: as §2

[9] = system: panel of 97 kinases; test: KinomeScan; format: binding; details: competition screen
[10] = molecular target: T1, BRAF^V600E; test: LanthaScreen Eu kinase binding assay
Procedure: Binding affinity of inhibitors to recombinant full-length BRAF was determined using the LanthaScreen Eu Kinase Binding Assay (Invitrogen) in PBS buffer. Initially, saturated binding of fluorescent Alexa Fluor 647 ATP-site tracer T178 (Invitrogen) on BRAF, which was his-tagged at the N-terminus, was established. T178 tracer was then competed-off by increasing amounts of inhibitors in titration experiments in 96-well plates. Competition was detected by loss of TR-FRET signal. The signal was produced by a FRET pair between an Eu-labeled anti his-tag antibody, which recognizes his-tagged BRAF used in the assay, and the T178 tracer. The europium donor was excited using a 340 nm excitation filter and energy transfer to the T178 tracer was measured using a filter centered at 665 nm with a time delay of 200 μs. The emission ratio was calculated as the 665 nm signal divided by the 615 nm signal. The apparent % inhibition was calculated by least squares fits of the emission ratio. […] The maximum DMSO concentration in the assay was 2%.

[11] = system: pERK in A375 xenograft tumors; test: Pharmacodynamic study, pERK in A375 xenograft tumors; format: in vivo, female SCID mice; details: 5 mg/kg single oral dose, A375 mice xenograft
Procedure: (§3) The pharmacokinetic profile of DAB and DABK was assessed in CD-1 female mice after a single dose at 5 mg/kg by oral gavage. Blood samples were collected at various time points (0.5, 1, 2, 4, 6, 12 and 24 hr after oral gavage) and inhibitor concentrations in plasma determined by an internal standard HPLC-chromatography tandem mass spectrometry method using calibration standards prepared in blank mouse plasma. Reported plasma concentrations are average values from 3 mice per time point. For PD study, tumor xenografts were established by subcutaneous implantation of A375 melanoma cells plus Matrigel (BD Biosciences) into the right flank of female SCID mice. Mice were randomized to treatment and control groups when the average tumor volume reached 100-150 mm^3 and were treated with a single oral dose (PO) of either vehicle or inhibitors at 5 mg/kg. Tumors were harvested at 2, 12 and 24 hr post PO (3 mice per group). Harvested tumors were homogenized in lysis buffer containing 50 mM Tris-HCl pH7.5, 1% NP40, 150 mM NaCl, 1 mM EDTA, 10% glycerol and phosphatase/protease inhibitors. pERK levels in clarified lysates were determined by Western Blotting and were expressed as % inhibition by normalization to average levels from vehicle tumors (0% inhibition). Vehicle formulation for DAB and DABK treatment in both PK and PD was 30% PEG-400, 0.5% Tween-20, 5% Glycerol in PBS.

[12] = system: A549 cells; test: Cell viability and antiproliferative synergy with cobimetinib (Bliss matrix), A549; format: cell-based; details: A549, combination with cobimetinib (COB)
Procedure: as §2

[13] = Pharmacokinetic profile, mouse plasma levels after oral gavage; format: in vivo, CD-1 female mice; details: 5 mg/kg
Procedure: as §3

[14] = molecular target: T1, BRAF^V600E; test: Z'-LYTE kinase activity assay, BRAF^V600E; format: biochemical; details: equilibrium; ZLYTE
Procedure: BRAF kinase assays were performed using the Z′-LYTE™ enzymatic assay (Invitrogen, USA). […] Titrations were performed using a 1:3 dilution. Assays were performed using SelectScreen (Invitrogen).

T1 sequence (P15056 whole entry V600E): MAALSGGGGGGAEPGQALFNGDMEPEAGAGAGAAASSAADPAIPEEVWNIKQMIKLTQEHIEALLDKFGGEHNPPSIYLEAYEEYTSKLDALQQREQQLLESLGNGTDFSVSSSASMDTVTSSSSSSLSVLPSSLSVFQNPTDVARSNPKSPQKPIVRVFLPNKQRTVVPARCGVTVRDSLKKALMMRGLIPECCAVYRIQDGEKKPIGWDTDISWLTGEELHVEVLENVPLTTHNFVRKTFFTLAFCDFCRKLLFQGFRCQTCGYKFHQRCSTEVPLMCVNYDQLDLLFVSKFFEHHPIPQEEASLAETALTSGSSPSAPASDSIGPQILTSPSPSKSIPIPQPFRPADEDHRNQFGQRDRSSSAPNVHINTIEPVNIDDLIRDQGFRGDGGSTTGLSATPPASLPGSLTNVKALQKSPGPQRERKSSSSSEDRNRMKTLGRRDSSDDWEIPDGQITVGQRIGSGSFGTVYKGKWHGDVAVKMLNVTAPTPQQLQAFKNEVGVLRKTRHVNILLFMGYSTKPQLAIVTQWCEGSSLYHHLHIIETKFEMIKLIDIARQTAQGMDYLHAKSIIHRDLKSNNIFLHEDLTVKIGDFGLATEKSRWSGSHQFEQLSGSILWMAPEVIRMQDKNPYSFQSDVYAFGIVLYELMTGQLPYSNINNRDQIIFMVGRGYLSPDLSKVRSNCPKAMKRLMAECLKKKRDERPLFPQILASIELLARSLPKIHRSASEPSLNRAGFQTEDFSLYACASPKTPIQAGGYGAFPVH
Sequence of full length BRAF^V600E (P15056 whole entry V600E): as above

Row | SMILES | IC50 ([8]; 72 h) [nM] | relative p-MEK1/2 after washout [1] | p-MEK1/2 inhibition after washout [2] | relative p-ERK1/2 after washout [2] | IC50 ([3]; 72 hr) [nM] | IC50 ([3]; Homo sapiens, 72 h) [nM] | melting temperature (Tm) [4] | IC50 of pERK inhibition [5] | IC50 [6] [nM] | apparent in vitro residence time (Koff) [7] | IC50 [8] [nM] | also measured
1 | C[C@@H](CNc1nccc(-c2sc(C(C)(C)C)nc2-c2cccc(NS(=O)(=O)c3c(F)cccc3F)c2F)n1)NC(=O)CCO [Compound K6] |  | prolonged signaling inhibition over time | Almost complete p-MEK1/2 inhibition over time | prolonged ERK signaling inhibition over time |  |  |  |  |  |  |  | 
2 | COC(=O)N[C@@H](CN)CNc1nccc(-c2sc(C(C)(C)C)nc2-c2cccc(NS(=O)(=O)c3c(F)cccc3F)c2F)n1 [Compound K8] |  | prolonged signaling inhibition over time | Almost complete p-MEK1/2 inhibition over time | prolonged ERK signaling inhibition over time |  |  |  |  |  |  |  | 
3 | CC(C)(C)c1nc(-c2cccc(NS(=O)(=O)c3c(F)cccc3F)c2F)c(-c2ccnc(N)n2)s1 [DAB, dabrafenib] | > 400 |  |  |  | 425 | > 400 | very similar | lower IC50 | 5.3 | significantly shorter residence times | 456 | 

The next lines start with results.

Row | IC50 ([8]; 72 h) [nM] | SMILES | relative p-MEK1/2 after washout [1] | p-MEK1/2 inhibition after washout [2] | relative p-ERK1/2 after washout [2] | IC50 ([3]; 72 hr) [nM] | IC50 ([3]; Homo sapiens, 72 h) [nM] | melting temperature (Tm) [4] | IC50 of pERK inhibition [5] | IC50 [6] [nM] | apparent in vitro residence time (Koff) [7] | IC50 [8] [nM] | also measured
4 | 35 | COC(=O)N[C@@H](C)CNc1nccc(-c2sc(C(C)(C)C)nc2-c2cccc(NS(=O)(=O)c3c(F)cccc3F)c2F)n1 [DABK] | prolonged signaling inhibition over time | Almost complete p-MEK1/2 inhibition over time | prolonged ERK signaling inhibition over time | 20.6 | 20 | very similar | comparable IC50 to Enco | 3.4 | sustained binding in the time frame of the experiment | 35.3 | targeting selectivity across the kinome [9]: improved compared to DAB's; also recorded: improved targeting selectivity across the kinome; also recorded: higher specificity than DAB; Kd, binding affinity [10]: low nM range; endurance of pERK inhibition in tumors [11]: > 12 hr; half-life of recovery of pMEK inhibition ([1]; A375, 500 nM for 1 h, then wash-out): 2.5 hours; retention of p-MEK inhibition relative to DAB ([1]; A375 wash-out, times longer than DAB): approximately 4.4 times; extent of antiproliferative synergy [12]: strong synergy; clearance from the blood [13]: faster clearance from the blood than DAB; IC50, kinase inhibitory activity [14]: low nM range
5 | > 400 | COC(=O)N[C@@H](C)CNc1nccc(-c2cn(C(C)C)nc2-c2cc(Cl)cc(NS(C)(=O)=O)c2F)n1 [Enco, encorafenib] |  |  |  |  | > 400 |  |  |  | sustained binding in the time frame of the experiment |  | 
6 | > 400 | CCCS(=O)(=O)Nc1ccc(F)c(C(=O)c2c[nH]c3ncc(-c4ccc(Cl)cc4)cc23)c1F [VEM, vemurafenib] |  |  |  |  | > 400 |  |  |  |  |  | 
